Structures can show the parent of a compound that is named as a salt.
Target: T1, HDAC6 (Homo sapiens, UniProt Q9UBN7)
T1 construct: purchased BPS Bioscience 50006
T1 sequence (Q9UBN7 1-1215): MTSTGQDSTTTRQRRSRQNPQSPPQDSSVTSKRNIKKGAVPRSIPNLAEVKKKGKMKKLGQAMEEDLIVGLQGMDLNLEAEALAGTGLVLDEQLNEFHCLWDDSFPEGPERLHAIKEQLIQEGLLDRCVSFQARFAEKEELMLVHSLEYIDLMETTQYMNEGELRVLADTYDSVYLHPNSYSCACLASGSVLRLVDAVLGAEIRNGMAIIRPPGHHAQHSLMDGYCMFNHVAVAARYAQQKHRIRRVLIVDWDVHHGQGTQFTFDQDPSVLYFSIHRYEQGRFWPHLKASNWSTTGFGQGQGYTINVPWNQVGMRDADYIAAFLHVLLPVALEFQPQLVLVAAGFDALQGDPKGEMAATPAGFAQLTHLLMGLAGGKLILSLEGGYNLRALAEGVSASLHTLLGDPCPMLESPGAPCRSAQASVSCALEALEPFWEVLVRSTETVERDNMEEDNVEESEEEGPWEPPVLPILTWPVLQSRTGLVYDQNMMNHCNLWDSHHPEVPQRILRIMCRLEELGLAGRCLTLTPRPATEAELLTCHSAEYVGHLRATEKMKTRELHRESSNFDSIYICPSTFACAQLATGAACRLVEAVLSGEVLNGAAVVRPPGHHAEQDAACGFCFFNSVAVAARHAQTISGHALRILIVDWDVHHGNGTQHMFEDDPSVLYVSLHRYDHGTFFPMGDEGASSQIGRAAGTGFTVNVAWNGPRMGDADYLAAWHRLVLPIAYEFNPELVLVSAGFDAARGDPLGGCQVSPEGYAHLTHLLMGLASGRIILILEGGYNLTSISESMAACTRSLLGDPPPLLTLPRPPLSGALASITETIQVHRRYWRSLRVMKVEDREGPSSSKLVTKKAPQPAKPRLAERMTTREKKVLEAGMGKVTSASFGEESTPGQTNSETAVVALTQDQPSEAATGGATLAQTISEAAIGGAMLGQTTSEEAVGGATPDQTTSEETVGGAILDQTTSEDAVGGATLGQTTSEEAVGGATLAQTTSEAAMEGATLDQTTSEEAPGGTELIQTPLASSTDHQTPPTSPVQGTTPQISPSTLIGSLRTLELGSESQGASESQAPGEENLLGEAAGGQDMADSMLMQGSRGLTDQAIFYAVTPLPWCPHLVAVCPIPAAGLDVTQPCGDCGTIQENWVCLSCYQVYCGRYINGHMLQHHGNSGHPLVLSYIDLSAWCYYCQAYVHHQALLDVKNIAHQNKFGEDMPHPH
Assay: HDAC6 enzyme inhibition assay (fluorimetric)
Type: biochemical
Conditions: 3 hours preincubation with enzyme, fraction of positive control; for inhibition at 0.1 µM: 0.1 μM test compound, read-out: HDAC6 % inh @ 0.1 μM; for inhibition at 0.3 µM: 0.3 μM test compound, read-out: HDAC6 % inh @ 0.3 μM; for inhibition at 1 µM: 1 μM test compound, read-out: HDAC6 % inh @ 1 μM
Description: A fluorimetric assay was used to determine the biochemical activity of the inhibitors on HDAC6 in 96-Well Half Area Black Microplates (Corning #3686)+TopSeal-A Black Sealing Film (Perkin Elmer #6050173). Test compounds were dissolved in DMSO. Half-log serial dilutions of test compounds were prepared in DMSO and then diluted 1:10 in assay buffer (BPS Bioscience #50031).
2.5 μL of enzyme (BPS Bioscience #50006) was incubated with 2.5 μL of test compounds for 3 hours in assay buffer with 0.1 mg/mL Bovine Serum Albumin (Sigma-Aldrich #A7030) at 21° C. in 22.5 μL total volume. The enzymatic reaction was started with the addition of 2.5 μL of a fluorogenic acetylated peptide substrate (BPS Bioscience #50037). The final concentration of enzyme and substrate in the reaction were 8.8 nM and 9 μM, respectively. After 45 minutes of incubation at 37° C., the addition of 25 μL of a development solution (BPS
Bioscience #50030) releases a fluorophore whose amount is proportional to the amount of the deacetylated product. Fluorescence intensity was measured after 15 minutes incubation at 21° C. with a Tecan Infinite F200 microplate reader (excitation 360 nm-emission 460 nm).
The negative control (background) was represented by the reaction mix in the absence of the enzyme (with 0.1% DMSO), while the positive control of deacetylase activity was obtained in the absence of test compounds (with 0.1% DMSO) after background subtraction. Percentage of inhibition was calculated as a fraction of the positive control.

SMILES | inhibition at 0.1 µM | inhibition at 0.3 µM | inhibition at 1 µM
Cn1c(C(=O)N2CCOCC2)cc2cc(-c3cc(-c4noc(C(F)(F)F)n4)ccn3)ncc21 [Example 3, (1-Methyl-5-(4-(5-(trifluoromethyl)-1,2,4-oxadiazol-3-yl)pyridin-2yl)-1H-pyrrolo[2,3-c]pyridin-2-yl)(morpholino)methanone mesylate] | 59% | 84% | 93%
COCCN(C)C(=O)c1cc2cc(-c3cc(-c4noc(C(F)(F)F)n4)ccn3)ncc2n1C [Example 2a, N-(2-Methoxyethyl)-N,1-dimethyl-5-(4-(5-(trifluoromethyl)-1,2,4-oxadiazol-3-yl)pyridin-2-yl)-1H-pyrrolo[2,3-c]pyridine-2-carboxamide hydrochloride] | 66% | 89% | 97%
C[C@H]1COCCN1C(=O)c1cc2cc(-c3cc(-c4noc(C(F)(F)F)n4)ccn3)ncc2n1C [Example 2d, (S)-(1-Methyl-5-(4-(5-(trifluoromethyl)-1,2,4-oxadiazol-3-yl)pyridin-2-yl)-1H-pyrrolo[2,3-c]pyridin-2-yl)(3-methylmorpholino)methanone hydrochloride] | 64% | 86% | 96%

Source: patent US12522598B2, “3-(2-(heteroaryl)-pyridin-4-yl)-5-(trifluoromethyl)-1,2,4-oxadiazole derivatives as HDAC6 inhibitors” (ORYZON GENOMICS, S.A., priority 2019, dated 2026)
